Molecules are shown by their SMILES. pIC50: −log10 of the molar value.

In one assay the test system is Daudi cells. The experiment in a line: Proliferation of Daudi cells (Cell Titer-Glo, 96 h). Conditions: Homo sapiens, B cells, outcome-based, read-out: IC50 Proliferation Daudi cells (Burkitt's Lymphoma). As to the method:
Growth inhibitory activity against the human tumor cell lines, RS4; 11 and Daudi was determined using Promega's Cell Titer-Glo® assay. The human tumor cells were placed in a 96-well microculture plate (Costar white, flat bottom #3917) in a total volume of 90 μL/well. After 24 hours of incubation in a humidified incubator at 37° C. with 5% CO2 and 95% air, […] serially diluted test agents in growth medium were added to each well. After 96 total hours of culture in a CO2 incubator, the plated cells and Cell Titer-Glo® (Promega # G7571) reagents were brought to room temperature to equilibrate for 30 minutes. 100 μL of Cell Titer-Glo® reagent was added to each well. The plate was shaken for 2 minutes and then left to equilibrate for 10 minutes before reading luminescence on the Tecan GENios microplate reader.
Percent inhibition of cell growth was calculated relative to untreated control wells. All tests were performed in duplicate at each concentration level. The IC50 value for the test agents was estimated using Prism 3.03 by curve-fitting the data using the following four parameter-logistic equation: […]
(In ATP-based viability assays light output follows the ATP content of the culture.)

For assay [1], the system named is NF-kB pathway, THP-1 cells. In words: NFkB-NFkB-bla THP-1 screen. The following applies: Homo sapiens, read-out: IC50 Cell-based selectivity: NF-kB pathway THP-1 cells. Here is the method:
Mechanism-based inhibition assays using compound 7A (Table 1) were performed using GeneBLAzer® Technology (Invitrogen Corporation), according to manufacturer specifications. Briefly, GeneBLAzer® Technology uses a mammalian-optimized Beta-lactamase reporter gene (bla) combined with a FRET-enabled substrate to provide reliable and sensitive detection in intact cells. Cells were loaded with an engineered fluorescent substrate containing two fluorophores, coumarin and fluorescein. Without bla expression, the substrate molecule remains intact. In this state, excitation of the coumarin results in fluorescence resonance energy transfer to the fluorescein moiety and emission of green light. But when bla is expressed, the substrate is cleaved, the fluorophores are separated, and energy transfer is disrupted. Excitation of the coumarin in the presence of Beta-lactamase activity results in a blue fluorescence signal. […]
General Activator Assay Protocol • 1. […] The assay, plate was read on a fluorescence plate reader (Tecan Safire^2) and the data is analyzed.
NFkB-bla THP-1 cells were thawed and resuspended in Assay Media (RPMI, 10% dialyzed FBS, 0.1 mM NEAA, 1 mM Sodium Pyruvate, 100 U/mL/100 μg/mL Pen/Strep) to a concentration of 625,000 cells/mL. […] The plate was read on a fluorescence plate reader.

Assay [2] concerns B-cell lymphoma (Daudi cell line) xenograft. In words: Mouse xenograft study with B-cell lymphoma (Daudi cell line). In kind it is in vivo. The following applies: 28 days, Balb/c nude mice. Here is the method:
The anti-tumor effect of compounds of the invention can be evaluated in vivo. For example, the anti-tumor effect of compound 7A was determined using a mouse xenograft study with B-cell lymphoma (Daudi cell line). Mice (n=8 all) were administered compound 7A over a period of 28 days. The compound was dosed at 100 mg/kg IP QD and 300 mg/kg PO QD. Tumor volume was measured over time.
The Daudi cell line culture was prepared using Daudi cell line (ATCC, USA), RPMI 1640 medium (Invitrogen, USA), and FBS (Invitrogen, Australia). […]
The mice were weighed at each dosing and recorded every day. Tumor size was measured every other day in two dimensions using a caliper, and the volume was expressed in mm^3 using the formula: V=0.5 a×b^2 where a and b were the long and short diameters of the tumor, respectively. […] Tumor volume, weight of dissected tumors, and mouse body weight were measured and recorded. […]
The difference between the mean values of tumor volume in treated and vehicle groups was analyzed for significance using one way ANOVA test at each time point after log transformation. The difference between the mean values of tumor weight in treated and vehicle groups was analyzed for significance using t-test. […]

As for `O=C(CN1CCOCC1)Nc1cccc(-c2nc(-c3c[nH]c(C(=O)N4CCCC4)c3)cs2)c1` [7A, 2-morpholino-N-(3-(4-(5-(pyrrolidine-1-carbonyl)-1H-pyrrol-3-yl)thiazol-2-yl)phenyl)acetamide], the pIC50 in the assay on Daudi cells was 6.80; in assay [1], 4.39. Also, the tumor growth inhibition in assay [2] (100 mg/kg IP QD) was 89%; in assay [2] (300 mg/kg PO QD) it was 87%.
